We go through 88 compounds from a melting point compilation (Tetko et al.; mined from patent text by program, amines drawn as free bases though some values may be those of a salt).

What is called melting point is the temperature, or range, at which the solid turns liquid.

In turn, `CC(C)CNC(=O)[C@H](C)C[C@H](O)[C@H](CC1CCCCC1)NC(=O)[C@H](Cc1cscn1)NC(=O)[C@@H](CC(=O)N(C)Cc1ccccc1)Cc1ccccc1` showed a melting point of 118 to 120 °C.
As for `CC(C)Oc1ccc(-c2cncc(OC3SCC(O)C(O)C3O)c2)cc1` (stereo not drawn), the figure is 158 °C; as for `CCOC(=O)c1ncn2c1[C@@H]1CCCN1C(=O)c1sccc1-2`, 212 to 213 °C.
On to `CCOC(=O)c1cn2c3c(cc(F)cc3c1=O)C(=O)CC2C` (stereo not drawn), for which the melting point is 262 to 265 °C.
The figure for `CCC(CC)N(O)C(=O)Nc1cc(C(F)(F)F)cc(C(F)(F)F)c1` is 115 to 116 °C.
As for `COC(=O)/C=C/[C@@H](c1ccc2ccccc2c1)c1cccc2c1ccn2C(=O)OC(C)(C)C`, the melting point was in the range of 75 to 78 °C.
`C=CCOC(=O)c1cc(NC(=O)OC(C)(C)C)ccc1OCC=C` returned a melting point of 77 to 78 °C.
In turn, `COC(=O)c1cc(C=O)c(NS(C)(=O)=O)c([N+](=O)[O-])c1` returned a melting point of 158 to 160 °C.
The figure for `Cc1nc(-c2ccccc2C(F)(F)F)c(-c2ccccc2C(F)(F)F)o1` is 100 to 102 °C; for `Cc1cccc(CC(=O)N2C[C@@H]3C(=O)CCC(c4ccccc4)(c4ccccc4)[C@@H]3C2)c1` (racemic) it is 184 °C.
`CC(=O)SCC1CCCCCCC(C(=O)N2C(=O)OCC2Cc2ccccc2)NC1=O` (stereo not drawn) returned a melting point of 65 to 66 °C.
`O=C1CCCc2sc(CCN3CCC(c4csc5cc(F)ccc45)CC3)cc2N1` returned a melting point of 191 to 193 °C.
The compound `O=C(c1ccc(Cl)cc1)n1cc(Cc2cc(=O)n(C3CCCCC3)[nH]2)c2ccccc21` registered a melting point of 109 to 111 °C.
Consider `Cc1noc(NS(=O)(=O)c2cccc3cccnc23)c1Br`, for which the melting point fell in the range of 169 to 171 °C.
The figure for `CCNc1ccc(C(=O)CBr)cc1S(N)(=O)=O` is 156 to 157 °C.
`C=CCONC(O)(CC)C1C(=O)C=C(CC)OC1=O` (stereo not drawn): the melting point lay within 62.5 to 64 °C.
As for `C=CCN(CC=C)c1nc(NC(=O)c2ccco2)n2oc(=O)nc2n1`, the figure is 159 to 162 °C; as for `N#Cc1cccc2c1C(=O)C(OCc1ccccc1)=C(OCc1ccccc1)C2=O`, 118 to 121 °C; as for `Cc1c(C)c2c(c(C)c1N)CC(C)(CSc1ccncc1)O2` (stereo not drawn), 96 to 97 °C.
The figure for `CCOCc1nc2c(N)nc3cc(-c4ccccc4)ccc3c2n1CC(C)(C)NS(C)(=O)=O` is 239 to 242 °C; for `NC(=O)C1CCN(c2ccncc2Cl)CC1` it is 210 to 212 °C; for `S=C(Nc1cccc(Cl)c1)N1CCCSC1c1ccccc1` (stereo not drawn) it is 132 to 135 °C.
`CNC(=O)N1N=C(c2ccc([N+](=O)[O-])c(C)c2)c2cc3c(cc2CC1C)OCO3` (stereo not drawn) returned a melting point of 221 to 229 °C.
The figure for `COC(=O)C(Cc1ccc(OCCN(C)c2nc3ccccc3o2)cc1)OCC(=O)O` (stereo not drawn) is 154 to 155 °C; for `CCOC(=O)c1cnc2cn[nH]c2c1Sc1ccccc1` it is 130 to 131 °C; for `CC1(C)OC(=S)Nc2ccc(-c3coc(C#N)c3)cc21` it is 214 to 216 °C.
`O=C(C=C(c1cc(Cl)cc(Cl)c1)C(F)(F)F)c1ccc(C(=O)NC2CCCO2)cc1` (stereo not drawn) had a melting point of 140 to 146 °C.
On to `COC(=O)CS(=O)(=O)CCCCCCn1nc(-c2ccccc2)c(-c2ccccc2)c1-c1ccccc1`, for which the melting point lay within 92.5 to 94.5 °C.
The compound `CCCc1nc2c(N)nc3ccccc3c2n1CC(C)C` displayed a melting point of 191 to 192 °C.
`COc1ccc(C2(C#Cc3nccn3C)CCC(=O)CC2)cc1OC1CCCC1` had a melting point of 137 to 138 °C.
For the compound `COC(=O)c1ccccc1C1=NC(C)(C(C)C)C(=O)N1O` (stereo not drawn), the melting point was 146 to 150 °C.
As for `CCOc1ccccc1Sc1ccc(/C=C/C(=O)N2CCCC(C(=O)O)C2)cc1Cl` (stereo not drawn), the figure is 166 to 171 °C.
`Nc1nc2ccccc2c2c1ncn2Cc1ccncc1` gave a melting point of more than 300 °C.
With `CCNC(=O)c1sc(C=O)cc1[Si](C)(C)C`, the melting point was in the range of 62 to 65 °C.
As for `O=C(c1ccccc1)c1ccc2nc3[nH]c(=O)[nH]c3cc2c1`, the melting point was more than 300 °C.
The compound `CCCCCCCCCC(=O)OC1CCC2C3CCC4=CC(=O)CCC4C3CCC12CC` (stereo not drawn) yielded a melting point of 97 to 97.5 °C.
As for `O=C(Cn1c2c(c(=O)n3nc(-c4ccc(Cl)cc4)cc13)CN(C1CCCCC1)C2=O)c1ccccc1`, the figure is 237 to 239 °C; as for `CS(=O)(=O)c1ncc(OCc2ccccc2)cn1`, 100 to 102 °C; as for `N#Cc1cccc(-c2ccc(O)c(C=O)c2)c1`, 139 to 140 °C.
Compound `CCCCCCCCCCCCCc1c(C(=O)O)sc2c(Br)csc12` displayed a melting point of 88 to 90 °C.
With `CCOc1cc(CCl)nc(OCC)n1`, the melting point lay within 38 to 39 °C.
`CCOc1cc(N(CC)CC)ccc1-c1nc2n(C3CCCC3)[nH]c(CC)c-2c(=O)n1` displayed a melting point of 138 to 139 °C.
As for `CC1(c2ccc(O)c(Br)c2)C(=O)Nc2cc(Cl)cc(Cl)c2C1=O` (stereo not drawn), the figure is 228 to 229 °C; as for `Clc1ccc(N=C2NCCN2)c(Cl)c1Cl`, 161 °C; as for `CC(C)Cc1nc2ccc(O)cc2c(-c2ccccc2F)c1C#N`, 256 to 257 °C.
Compound `COc1ccc(-c2cc(=O)n(Cc3ccc(Cl)cc3Cl)nc2-c2ccc(OC)c(OC)c2)cc1` yielded a melting point of 119 to 120 °C.
`CCCCc1ccc(CCc2cc3c(s2)-n2c(C)nnc2CN=C3c2ccccc2Cl)cc1`: the melting point lay in the range of 119 to 121 °C.
`C[C@@H]1C[C@](C)(O)[C@H](C)N1c1ccc(C#N)c(Cl)c1` gave a melting point of 132 to 133 °C.
In turn, `COCOc1cc(C(C)(C)C)ccc1C(=O)O` gave a melting point of 72 °C.
The figure for `CCc1nc2c(N)nc3ccccc3c2n1CCC1(O)CCOCC1` is 243 to 244 °C; for `CCOC(=O)/C=C/c1ccc(OCOC)c(C)c1OCc1ccc(Cl)cc1Cl` it is 110 to 112 °C; for `CCNC1CCN(c2c(F)cc3c(=O)c(C(=O)O)cn(CC)c3c2F)C1` (stereo not drawn) it is 227 to 229 °C.
The figure for `Cc1cc(O)c(C2CCCCC2)cc1S(=O)c1cc(C2CCCCC2)c(O)cc1C` is 151 to 153 °C; for `Cc1c(C)c2c(c(C)c1O)CCC(C)(C(=S)Nc1cc(C(C)(C)C)c(O)c(C(C)(C)C)c1)O2` (stereo not drawn) it is 172 to 174 °C.
As for `O=C1CCCC(=O)C1C(=O)c1ccc(Cl)cc1Cl`, the figure is 138 to 140 °C; as for `CC(C)(C)C1CCC(C2=C(O)C(=O)c3ccccc3C2=O)CC1` (stereo not drawn), 123 to 126 °C; as for `COC(=O)Nc1cn2cc(Sc3ccccc3)ccc2n1`, 247 to 249 °C.
Turning to `CCc1n[nH]c(=O)c2ccc(OC)cc12`, the melting point lay in the range of 230 to 235 °C.
`CCOC(=O)Nc1cc([N+](=O)[O-])cc(CC)c1C(=O)O`: the melting point was 121 to 123 °C.
`CCOC(=O)C1=C(C)NC(c2cscn2)=NC1c1cccc(C)c1` (stereo not drawn) came in with a melting point of 133 to 134 °C.
As for `CN1C[C@H]2c3ccccc3CC[C@H]2CCC1=O` (relative stereo), the figure is 130 to 131 °C; as for `CC(=O)Oc1cc(C)c(C)c(C)c1C1(OC(C)=O)C(=O)c2ccccc2C1=O`, 238 to 242 °C.
Compound `CCc1c(O)cc(O)c(C(=O)c2ccc(OC)cc2)c1CC(=O)N(CCO)CCN1CCOCC1` had a melting point of 235 to 237 °C.
The compound `COC=C(C(=O)OC)c1cnc(C)nc1Oc1cccc(C(F)(F)F)c1` showed a melting point of 100 to 102 °C.
The figure for `COc1cc(Cc2cnc(N)nc2N)cc(C#Cc2ccc3ccccc3c2)c1OC` is 152 to 155 °C.
In turn, `O=C1CC(c2cccc(-n3ccnc3)c2)=Nc2cc(O)c(-c3ccccc3F)cc2N1` returned a melting point of 220 °C.
The figure for `C(/CN1CCOCC1)=C1/CCCc2c1cnn2-c1ccccc1` is 114 to 116 °C; for `CC(C)C(NC(=O)OCCN1CCCC1)C(=O)NC(Cc1ccccc1)C(O)C(Cc1ccccc1)NC(=O)C(NC(=O)OCc1ccccc1)C(C)C` (stereo not drawn) it is 143 to 146 °C; for `CN(C)C1CCCN(C(=O)c2ccc(NC(=O)Cc3ccccc3Cl)cc2)c2ccccc21` (stereo not drawn) it is 187 to 189 °C.
With `N#CCNc1cn(-c2cccnc2)nc1Cl`, the melting point is 141 to 143 °C.
The compound `C=C1C=CC2CC1C(Cc1ccc(OC)cc1)NC2=O` (stereo not drawn) returned a melting point of 132 to 133 °C.
The compound `CCNc1nc2ccc(CCc3cn4c(n3)CC(C)CC4)cc2o1` (stereo not drawn) returned a melting point of 159 to 161 °C.
Regarding `CCOc1cc(C(=O)O)cc(S(N)(=O)=O)c1-c1ccccc1`, the melting point lay within 149 to 150 °C.
The compound `C#CCN1CSCC1=O` had a melting point of 29 to 31 °C.
Regarding `N#Cc1ccc(-c2ccc(OS(N)(=O)=O)c(Cl)c2)cc1Cn1cncn1`, the melting point fell in the range of 155 to 158 °C.
The figure for `CCOC1CCC2(CC1)NC(=O)C(c1cc(Br)ccc1C)=C2O` (stereo not drawn) is 138 °C.
As for `CNCC1(O)c2ccccc2C=Cc2ccccc21`, the figure is 112 to 114 °C.
The compound `CCCCCS(=O)(=O)NC(=O)/C=C/c1ccc(OCCOC)cc1Oc1ccc(C(F)(F)F)cc1Cl` showed a melting point of 134 to 135 °C.
Compound `Cc1ccc(COc2ccc(C=C3CCCCC3=O)cc2)cc1` had a melting point of 148 to 149 °C.
As to `CCOC(=O)c1ccc(-c2cccc(O)c2)cc1`, the melting point was determined as 76 °C.
As to `O=c1[nH]c2ccccc2n1CCCN1CCN(C(c2ccccc2)c2ccccc2Cl)CC1` (stereo not drawn), the melting point came to 139 °C.
As for `O=C1NC(=O)C2(N1)C(=O)N(Cc1ccc(Cl)c(Cl)c1)c1ccc([N+](=O)[O-])cc12` (stereo not drawn), the figure is 245 to 246 °C; as for `CCOC(=O)c1nc(-c2ccccc2F)c(-c2ccc(=O)n(C(C)C)n2)s1`, 140 to 141 °C.
The figure for `Clc1ccc(-c2nc(-c3ccccc3)sc2CBr)cc1` is 108 to 109 °C.
`CCS(=O)(=O)c1ccc(S(=O)(=O)CC)nc1` registered a melting point of 148 to 150 °C.
In turn, `CCOC(=O)C(=Cc1ccccc1)S(=O)(=O)NC(=O)Nc1nc(OC)cc(OC)n1` displayed a melting point of 140 to 143 °C.
In the case of `Cc1ccccc1CNC(=S)c1ccc2c(c1)N(C(C)CN1CCCC1)c1ccccc1S2` (racemic), the melting point was 110 °C.
Compound `FC(F)(F)Sc1ncn(-c2c(Cl)cc(C(F)(F)F)cc2Cl)c1Br` had a melting point of 87.5 °C.
